Measured values: patent US20140371162A1, “COMBINATION THERAPY COMPRISING SGLT INHIBITORS AND DPP4 INHIBITORS” (MITSUBISHI TANABE PHARMA CORPORATION, priority 2008, published 2014)

What was measured:
[1] = tested on: plasma active GLP-1 level; experiment: Plasma active GLP-1 level in glucose-loaded normal (DPP4-positive) rats, Example 2; type: in vivo, rat; details: DPP4-positive male Fisher rats, mean ± SEM, n=6
Description: DPP4-positive male Fisher rats (purchased from Japan SLC, Inc.)
(§1) Each test compound was suspended in a solution of 0.5% carboxymethyl cellulose containing 0.2% Tween 80 at the doses indicated in Table 2, and administered to the test group orally at a volume of 5 mL/kg. The vehicle control group was orally administered a solution of 0.5% carboxymethyl cellulose containing 0.2% Tween 80 at a volume of 5 mL/kg. Just after the administration of the compound or vehicle, a glucose solution (2 g/kg/5 mL) was given orally.
Blood was collected from the caudal vein of an unanesthetized rat just before and 0.2, 0.5, 1, and 2 hours after glucose loading. Plasma active GLP-1 level was determined by using RAT ENDOCRINE LINCOplex KIT (LINCO Research).

[2] = tested on: plasma active GLP-1 level; experiment: Plasma active GLP-1 level in glucose-loaded DPP4-deficient rats; type: in vivo, rat; details: for GLP-1 concentration at each time point (hr) after oral administration: DPP4-deficient male Fisher rats, mean ± SEM, n=6
Description: DPP4-deficient male Fisher rats (purchased from Charles River Japan, Inc.)
as §1, with “The” for “Each”, “1,” for “2,”, “ml)” for “mL)”
Blood was collected from the caudal vein of an unanesthetized rat just before and 0.5, 1, and 3 hours after glucose loading. Plasma active GLP-1 level was determined by using RAT ENDOCRINE LINCOplex KIT (LINCO Research).

[3] = tested on: plasma active GLP-1 level; experiment: Plasma active GLP-1 level in glucose-loaded diabetic mice; type: in vivo; details: male db/db mice, mean ± SEM, n=8
Description: Male BKS.Cg−+Lepr^db/+Lepr^db/Jcl mice; an Animal Model of Type 2 Diabetes (Purchased from CLEA Japan, Inc.)
as §1, with “3,” for “2,”
Blood was collected from the caudal vein of an unanesthetized mice just before and 0.5, 1, and 2 hours after glucose loading. Plasma active GLP-1 level was determined by using RAT ENDOCRINE LINCOplex KIT (LINCO Research).

[4] = tested on: plasma active GLP-1 level; experiment: Plasma active GLP-1 level in glucose-loaded normal (DPP4-positive) rats, Example 4; type: in vivo, rat; details: Table 6, 10 mg/kg oral, DPP4-positive male Fisher rats, mean ± SEM, n=5 or 6
Description: Each test compound was suspended in a solution of 0.5% carboxymethyl cellulose containing 0.2% Tween 80 at the doses indicated in Table 4, 5 or 6, and administered to the test group orally at a volume of 5 mL/kg. The vehicle control group was orally administered a solution of 0.5% carboxymethyl cellulose containing 0.2% Tween 80 at a volume of 5 mL/kg. Just after the administration of the compound or vehicle, a glucose solution (2 g/kg/5 mL) was given orally.
Blood was collected from the caudal vein of an unanesthetized rat at appropriate time described in the table. Plasma active GLP-1 level was determined by using RAT ENDOCRINE LINCOplex KIT (LINCO Research).

[5] = 0 hr (just before), 10 mg/kg oral
[6] = 0 hr (just before), 30 mg/kg oral
[7] = 0 hr (just before), 3 mg/kg oral

OC[C@H]1O[C@@H](c2ccc(Cl)c(Cc3ccc(-c4cccc(F)n4)s3)c2)[C@H](O)[C@@H](O)[C@@H]1O [Compound A, 1-(β-D-glucopyranosyl)-4-chloro-3-[5-(6-fluoro-2-pyridyl)-2-thienylmethyl]benzene]
GLP-1 concentration at each time point (hr) after oral administration [1, 5]: 7.7 ± 0.4 pM | GLP-1 concentration at each time point (hr) after oral administration [1, 6]: 5.9 ± 0.3 pM | GLP-1 concentration at each time point (hr) after oral administration ([1]; 0.2 hr, 10 mg/kg oral): 7.9 ± 0.2 pM | GLP-1 concentration at each time point (hr) after oral administration ([1]; 0.2 hr, 30 mg/kg oral): 7.1 ± 0.3 pM | GLP-1 concentration at each time point (hr) after oral administration ([1]; 0.5 hr, 10 mg/kg oral): 10.2 ± 1.0 pM | GLP-1 concentration at each time point (hr) after oral administration ([1]; 0.5 hr, 30 mg/kg oral): 6.7 ± 0.4 pM | GLP-1 concentration at each time point (hr) after oral administration ([1]; 1 hr, 10 mg/kg oral): 9.5 ± 0.6 pM | GLP-1 concentration at each time point (hr) after oral administration ([1]; 1 hr, 30 mg/kg oral): 7.5 ± 0.9 pM | GLP-1 concentration at each time point (hr) after oral administration ([1]; 2 hr, 10 mg/kg oral): 9.6 ± 0.8 pM | GLP-1 concentration at each time point (hr) after oral administration ([1]; 2 hr, 30 mg/kg oral): 9.0 ± 0.9 pM | GLP-1 concentration at each time point (hr) after oral administration [2, 5]: 6.2 ± 1.3 pM | GLP-1 concentration at each time point (hr) after oral administration [2, 6]: 5.3 ± 0.7 pM | GLP-1 concentration at each time point (hr) after oral administration ([2]; 0.5 hr, 10 mg/kg oral): 24.5 ± 4.7 pM | GLP-1 concentration at each time point (hr) after oral administration ([2]; 0.5 hr, 30 mg/kg oral): 24.9 ± 3.8 pM | GLP-1 concentration at each time point (hr) after oral administration ([2]; 1 hr, 10 mg/kg oral): 31.3 ± 7.0 pM | GLP-1 concentration at each time point (hr) after oral administration ([2]; 1 hr, 30 mg/kg oral): 34.1 ± 5.7 pM | GLP-1 concentration at each time point (hr) after oral administration ([2]; 3 hr, 10 mg/kg oral): 21.9 ± 2.4 pM | GLP-1 concentration at each time point (hr) after oral administration ([2]; 3 hr, 30 mg/kg oral): 27.1 ± 2.1 pM | effect on plasma active GLP-1 level (in words) ([2]; DPP4-deficient rats, summary of Table 1): markedly increased | GLP-1 concentration at each time point (hr) after oral administration [3, 5]: 20.3 ± 9.6 pM | GLP-1 concentration at each time point (hr) after oral administration ([3]; 0.5 hr, 10 mg/kg oral): 42.6 ± 13.4 pM | GLP-1 concentration at each time point (hr) after oral administration ([3]; 1 hr, 10 mg/kg oral): 49.4 ± 12.0 pM | GLP-1 concentration at each time point (hr) after oral administration ([3]; 2 hr, 10 mg/kg oral): 30.9 ± 8.2 pM

N#C[C@@H]1CCCN1C(=O)CN[C@H]1CC[C@H](C(=O)N2CCOCC2)CC1 (relative stereo) [Compound B, (2S)-2-Cyano-1-[trans-4-(morpholinocarbonyl)cyclohexylamino]acetylpyrrolidine]
GLP-1 concentration at each time point (hr) after oral administration [1, 7]: 7.2 ± 0.6 pM | GLP-1 concentration at each time point (hr) after oral administration ([1]; 0.2 hr, 3 mg/kg oral): 9.8 ± 0.7 pM | GLP-1 concentration at each time point (hr) after oral administration ([1]; 0.5 hr, 3 mg/kg oral): 9.4 ± 0.4 pM | GLP-1 concentration at each time point (hr) after oral administration ([1]; 1 hr, 3 mg/kg oral): 8.3 ± 0.3 pM | GLP-1 concentration at each time point (hr) after oral administration ([1]; 2 hr, 3 mg/kg oral): 7.9 ± 0.5 pM | GLP-1 concentration at each time point (hr) after oral administration [3, 7]: 18.4 ± 5.1 pM | GLP-1 concentration at each time point (hr) after oral administration ([3]; 0.5 hr, 3 mg/kg oral): 30.0 ± 5.5 pM | GLP-1 concentration at each time point (hr) after oral administration ([3]; 1 hr, 3 mg/kg oral): 46.5 ± 10.1 pM | GLP-1 concentration at each time point (hr) after oral administration ([3]; 2 hr, 3 mg/kg oral): 25.0 ± 4.1 pM

CN(C)C(=O)[C@H]1CC[C@H](NCC(=O)N2CCC[C@H]2C#N)CC1.O=S(=O)(O)c1ccccc1 (relative stereo) [Compound I, (2S)-2-cyano-1-[trans-4-(dimethylaminocarbonyl)cyclohexylamino]acetylpyrrolidine besylate]
GLP-1 concentration at 2 hr after oral administration [4]: 4.0 ± 0.6 pM
